Non-standard residues stand in square brackets, D forms with d. Residues, ends and D or L forms follow the SMILES beside them. *: point of attachment. Leu(ol) = CC(C)C[C@H](N)CO; Cbz = O=C(OCc1ccccc1)*
| SMILES | melting point [°C] |
| --- | --- |
| Cc1c(CO)nc(-c2ccc(C(F)(F)F)cc2)n1C | 152 |
| CC1(C)CC(O)=CC2(C1)NCC(c1cccc(O)c1)O2 (stereo not given) | 217 |
| COC(=O)CS(=O)(=O)Cc1cnc(OC)c([N+](=O)[O-])c1 | 137 to 140 |
| CCCN(CC)S(=O)(=O)NC(=S)N1CC(c2ccccc2)C(c2ccc(Cl)cc2)=N1 (stereo not given) | 144 to 146 |
| CCCCCS(=O)(=O)NC(=O)c1ccc2nc(C)n(Cc3ccc(N(C)C(=O)C(C)(C)C)cc3Cl)c2n1 | 207 to 208 |
| O=C(O)CCCC=C(c1ccccc1)c1ccccc1 | 111 to 112 |
| N[C@H]1CCN(C(=O)c2cc(C(F)(F)F)cc(C(F)(F)F)c2)[C@H](Cc2ccc(Cl)cc2)C1 | 79 to 81 |
| C(=NNc1nc(OCCc2ccccn2)nc(N2CCOCC2)n1)c1c[nH]c2ccccc12 | 158 to 161 |
| CSc1nc2cc(C(F)(F)F)ccc2n1N | 170 to 173 |
| CC(C(=O)O)c1ccc2c(c1)CCc1cccnc1O2 (stereo not given) | 182 to 184 |
| Cc1cccc2[nH]c(Cl)nc12 | 138 to 140 |
| COc1ccc2c(c1)c(Cc1cc(=O)n(-c3cc(C)cc(C)c3)[nH]1)c(C)n2C(=O)c1ccc(Cl)cc1 | 77.5 to 79 |
| O=c1[nH]c2ccc(-c3cccc(Cl)c3)cc2n1Cc1ccccc1 | 168 to 169 |
| Cc1c(NC(=O)c2ccc(-c3ccc(F)cc3)cc2)ccc2cc(C(C)N3CCCC3)cnc12 (stereo not given) | 179 to 182 |
| CC(=O)N1CCC2(CC1)Cn1cc([N+](=O)[O-])nc1O2 | 232 to 234 |
| Cc1ccc(CC2(O)CCN(CC3=Cc4ccc(O)cc4C3)CC2)cc1 | 154 to 157 |
| Cc1ccc2c(c1)c1cc(-c3cccc(Br)c3)c(=O)n(C)c1n2C | 215 to 216 |
| COC(=O)[C@H](CCCCNC(=O)OCc1ccccc1)n1c2ccccc2c2ccccc21 | 97 to 99 |
| O=[N+]([O-])c1cnn2c1NCCC2 | 251 to 252 |
| CSC(=NC#N)N1CCc2nc(NC(=N)N)sc2C1 | 224 to 227 |
| Cn1cc(C(=O)NCc2ccc(Cl)cc2)c(=O)c2cccc(C#CCO)c21 | 228 to 230 |
| O=C1N(c2cc(Cl)nc(Cl)c2)C(=O)[C@]2(Cc3ccc(OC(F)(F)F)cc3)C[C@@H](c3cc[nH]c3C(=O)C(F)(F)F)CN12 | 167 |
| CCC(=O)C1=C(O)CC(c2cc3ccccc3cc2C)CC1=O (stereo not given) | 118 |
| Cc1nc(NC(=O)Nc2ccccc2)n(C)c(=O)c1CCN1CCN(c2noc3ccccc23)CC1 | 216 |

| SMILES | melting point [°C] |
| --- | --- |
| CCOC(=O)CCCCCOC(=O)c1c(I)c(NC(C)=O)c(I)c(NC(C)=O)c1I | 235 to 238 |
| Nc1ccccc1Oc1ccc2ncccc2c1 | 115 to 117 |
| CC1(C)CCC(C)(C)c2cc(C(Br)C(Br)c3ccc(C#N)cc3)ccc21 (stereo not given) | 174 to 175 |
| CCC(C)(C)C1=C(O)C(=O)c2ccccc2C1=O | 52 |
| Cc1cccc(-c2[nH]c(C(C)C)nc2-c2cccc(-c3cccnc3)c2)n1 | 74 to 77 |
| CN(C)CCc1[nH]c2ccccc2c1CSc1ccccc1 | 97 to 99 |
| CCc1nc2c(C)cc(C)nc2n1Cc1ccc(C(c2ccccc2)C(C)(C)C(=O)O)cc1 (stereo not given) | 103 to 106 |
| Cc1cc(O)ccc1-c1nn(CC(C)C)c2c(F)cccc12 | 126 to 128 |
| CC(C)c1ccc(S(=O)(=O)n2c(Cc3ccc(C(=O)O)c(F)c3)cc3cc(Cl)ccc32)cc1 | 196 |
| CSc1nc(Cl)c(I)c(C(F)(F)F)n1 | 55 to 56 |
| NC(=O)C1CCN(C(c2ccccc2)c2ccccc2)CC1 | 150 |
| CC(C)C12COc3cc(Cl)ccc3C1=NN(C(Cl)=Nc1ccc(C(F)(F)F)cc1)C2 (stereo not given) | 148 to 149 |
| CCCOc1ccc(/C=C/c2nc3c(c(=O)n(CC)c(=O)n3CC)n2C)cc1 | 156 |
| Cc1cccc(C2(Cn3cncn3)CC(COc3ccccc3[N+](=O)[O-])ON2C)c1 (stereo not given) | 149 to 152 |
| O=C1Nc2ccc(-c3ccc(Cl)cc3)cc2C1=O | 246 to 252 |
| O=C(NN1CCOCC1)C(CS)Cc1c(Cl)cccc1Cl (stereo not given) | 142 |
| NC(=O)c1cccc(OCc2ccccc2)c1 | 136 to 140 |
| C=C(CC)CNc1cccc(-c2ccnc3c(C(=O)c4cccs4)cnn23)c1 | 79 to 82 |
| NC(=O)C1COCCN1C1CC1 (stereo not given) | 116 |
| COc1ccc(NC(=O)Oc2cccc3ccoc23)cc1 | 157 to 159 |
| CCn1c(=O)sc2cc(C(c3ccc([N+](=O)[O-])cc3)n3cncn3)ccc21 (stereo not given) | 79 to 83 |
| Cc1nc[nH]c1CSCCN=C(NC#N)NCCc1c[nH]cn1 | 170 to 171 |
| CC(=O)c1c(N2CCOCC2)nn2ccccc12 | 164 |
| COC(=O)c1ccccc1Sc1cccc(O)c1 | 77 to 78.5 |

| SMILES | melting point [°C] |
| --- | --- |
| CCN1c2ncccc2C(=O)N(C)c2ccc(OC)nc21 | 116 to 118 |
| COc1ccc(NCCn2nc(O)c3[nH]c4cc(Cl)ccc4c(=O)c3c2=O)cc1 | 239 to 241 |
| O=c1ccc(-c2cc(Cl)c(O)c(Cl)c2)n[nH]1 | > 300 |
| O=C1NC(=O)/C(=C/c2cn(-c3ccccc3)nc2OCc2ccccc2)S1 | > 300 |
| COc1cc(C(=O)NS(=O)(=O)c2ccccc2Cl)ccc1Cc1cn(C)c2ccc(CCNC(=O)N(C)C)cc12 | 208 to 211 |
| CC(C)Nc1cccnc1N1CCN(C(=O)c2ccc(C(=O)N3CCN(C4CCCC4)CC3)cc2)CC1 | 181 to 182 |
| O=C(OCC(=O)N1CCCCC1)c1ccc(O)cc1 | 160 to 164 |
| COC(=O)C(Cc1ccccc1)C(=O)N1CCC(C(=O)O)CC1 (stereo not given) | 138 |
| CCCN(CCC)C1Cc2cc3c(=O)[nH]n(Cc4ccccc4)c(=O)c3cc2C1 (stereo not given) | 219 to 220 |
| CCCCCCCCCCCc1nnc(CO)n1-c1ccccc1C(=O)c1ccccc1 | 111 to 112 |
| COC(=O)C1=C(C)NC(C)=C(C(=O)OCCCCCCN2C(=O)c3ccccc3C2=O)C1c1cccc([N+](=O)[O-])c1 (stereo not given) | 134 to 140 |
| CC(C)C[C@@H](CO)NC(=O)[C@H](Cc1c[nH]cn1)NC(=O)[C@H](Cc1ccccc1)NC(=O)OCc1ccccc1 (Cbz-Phe-His-[Leu(ol)]) | 181 to 183 |
| Cn1cc(-c2ccnc(N[C@H]3CC[C@H](O)CC3)n2)c2ccccc21 | 194 to 195 |
| CCOC(=O)c1cc2cc(NS(=O)(=O)CCCCl)ccc2[nH]1 | 195 to 196 |
| Fc1ccc(-c2ncn(C3CCNCC3)c2-c2ccnc(Oc3ccc(OCc4ccccc4)cc3)n2)cc1 | 178 to 179 |
| O=C1CCC(=O)N1CC#CCN1CCCC1 | 93 to 94 |
| COCC(=O)OCc1c(C)n(Cc2ccccc2)c2c(OCc3ccc(F)cc3)nncc12 | 119 to 121 |
| CCOC(=O)c1c[nH]c2nc(Nc3ccc(C)c(Cl)c3)nn2c1=O | > 340 |
| Cn1nc(-c2c(F)cccc2Cl)nc1-c1sc(Cl)c(Cl)c1Cl | 129 to 130 |
| O=C(CSc1ccccn1)C12CC3CC(CC(C3)C1)C2 | 60 to 61 |
| Cc1ccc(C)c(-c2c3ccccc3nc3ccc(NC(=O)c4ccccc4)cc23)c1 | 253 to 255 |
| CN1CCN(C2(CN(C)C(=O)c3ccc(Cl)c(Cl)c3)CCCCC2)CC1 | 126 to 129 |

Source: a melting point compilation (Tetko et al.; mined from patent text by program, amines drawn as free bases though some values may be those of a salt)
